Tests used:
Vibrio cholerae = assay: Metabolic labeling of living bacteria, click chemistry and fluorescence microscopy; format: cell-based; parameters: key: +: strains showing highly distinctive fluorescence on their membrane, indicative of an effective metabolic incorporation of the chemical reporter; −: the absence of labeling; conditions: compound 10 mM, 24 hours, fluorochrome-alkyne click 30 minutes
Micrococcus luteus = assay: as above; format: cell-based; parameters: key to labeling (fluorescence on membrane, metabolic incorporation of the chemical reporter): +: strains showing highly distinctive fluorescence on their membrane, indicative of an effective metabolic incorporation of the chemical reporter; −: the absence of labeling
[1] = test system: Listeria monocytogenes ½a; assay: as above; format: cell-based; parameters: key: +: strains showing highly distinctive fluorescence on their membrane, indicative of an effective metabolic incorporation of the chemical reporter; −: the absence of labeling; conditions: compound 10 mM, 24 hours, fluorochrome-alkyne click 30 minutes
Staphylococcus aureus = assay: as above; format: cell-based; parameters: key to labeling (fluorescence on membrane, metabolic incorporation of the chemical reporter): +: strains showing highly distinctive fluorescence on their membrane, indicative of an effective metabolic incorporation of the chemical reporter; −: the absence of labeling
[2] = test system: Legionella pneumophila sg6; format: cell-based; parameters: key: +: strains showing highly distinctive fluorescence on their membrane, indicative of an effective metabolic incorporation of the chemical reporter; −: the absence of labeling; conditions: compound 10 mM, 24 hours, fluorochrome-alkyne click 30 minutes
Klebsiella pneumoniae [3] = assay: Metabolic labeling of living bacteria, click chemistry and fluorescence microscopy; format: cell-based; parameters: key: +: strains showing highly distinctive fluorescence on their membrane, indicative of an effective metabolic incorporation of the chemical reporter; −: the absence of labeling; conditions: second of two entries (Table 1 order: Clinical strain), compound 10 mM, 24 hours, fluorochrome-alkyne click 30 minutes
Escherichia coli O86 = assay: as above; format: cell-based; parameters: key: +: strains showing highly distinctive fluorescence on their membrane, indicative of an effective metabolic incorporation of the chemical reporter; −: the absence of labeling; conditions: compound 10 mM, 24 hours, fluorochrome-alkyne click 30 minutes
[4] = test system: Pseudomonas fluorescens Migula; assay: as above; format: cell-based; parameters: key: +: strains showing highly distinctive fluorescence on their membrane, indicative of an effective metabolic incorporation of the chemical reporter; −: the absence of labeling; conditions: compound 10 mM, 24 hours, fluorochrome-alkyne click 30 minutes
[5] = test system: Staphylococcus aureus aureus; assay: as above; format: cell-based; parameters: key to labeling (fluorescence on membrane, metabolic incorporation of the chemical reporter): +: strains showing highly distinctive fluorescence on their membrane, indicative of an effective metabolic incorporation of the chemical reporter; −: the absence of labeling
[6] = test system: Stenotrophomonas maltophilia; assay: as above; format: cell-based; parameters: key: +: strains showing highly distinctive fluorescence on their membrane, indicative of an effective metabolic incorporation of the chemical reporter; −: the absence of labeling; conditions: compound 10 mM, 24 hours, fluorochrome-alkyne click 30 minutes
Providenda stuartii = assay: as above; format: cell-based, Providencia stuartii; parameters: key: +: strains showing highly distinctive fluorescence on their membrane, indicative of an effective metabolic incorporation of the chemical reporter; −: the absence of labeling; conditions: compound 10 mM, 24 hours, fluorochrome-alkyne click 30 minutes
Listeria monocytogenes ½ = assay: as above; format: cell-based; parameters: key to labeling (fluorescence on membrane, metabolic incorporation of the chemical reporter): +: strains showing highly distinctive fluorescence on their membrane, indicative of an effective metabolic incorporation of the chemical reporter; −: the absence of labeling
Klebsiella pneumoniae [7] = assay: as above; format: cell-based; parameters: key: +: strains showing highly distinctive fluorescence on their membrane, indicative of an effective metabolic incorporation of the chemical reporter; −: the absence of labeling; conditions: first of two entries (Table 1 order: CIP 101114), compound 10 mM, 24 hours, fluorochrome-alkyne click 30 minutes
Serratia marcescens [8] = assay: as above; format: cell-based; parameters: key: +: strains showing highly distinctive fluorescence on their membrane, indicative of an effective metabolic incorporation of the chemical reporter; −: the absence of labeling; conditions: second of two entries (Table 1 order: Clinical strain), compound 10 mM, 24 hours, fluorochrome-alkyne click 30 minutes
Proteus mirabilis = assay: as above; format: cell-based; parameters: key: +: strains showing highly distinctive fluorescence on their membrane, indicative of an effective metabolic incorporation of the chemical reporter; −: the absence of labeling; conditions: compound 10 mM, 24 hours, fluorochrome-alkyne click 30 minutes
[9] = test system: Salmonella Typhimurium 12023; assay: as above; format: cell-based; parameters: key: +: strains showing highly distinctive fluorescence on their membrane, indicative of an effective metabolic incorporation of the chemical reporter; −: the absence of labeling; conditions: compound 10 mM, 24 hours, fluorochrome-alkyne click 30 minutes
Staphylococcus epidermis = assay: as above; format: cell-based; parameters: key to labeling (fluorescence on membrane, metabolic incorporation of the chemical reporter): +: strains showing highly distinctive fluorescence on their membrane, indicative of an effective metabolic incorporation of the chemical reporter; −: the absence of labeling
Neisseria meningitidis = assay: as above; format: cell-based; parameters: key: +: strains showing highly distinctive fluorescence on their membrane, indicative of an effective metabolic incorporation of the chemical reporter; −: the absence of labeling; conditions: compound 10 mM, 24 hours, fluorochrome-alkyne click 30 minutes
Serratia marcescens [10] = assay: as above; format: cell-based; parameters: key: +: strains showing highly distinctive fluorescence on their membrane, indicative of an effective metabolic incorporation of the chemical reporter; −: the absence of labeling; conditions: first of two entries (Table 1 order: CIP102446), compound 10 mM, 24 hours, fluorochrome-alkyne click 30 minutes
Escherichia coli K12 = assay: as above; format: cell-based; parameters: key: +: strains showing highly distinctive fluorescence on their membrane, indicative of an effective metabolic incorporation of the chemical reporter; −: the absence of labeling; conditions: compound 10 mM, 24 hours, fluorochrome-alkyne click 30 minutes
Enterococcus faecalis = assay: as above; format: cell-based; parameters: key to labeling (fluorescence on membrane, metabolic incorporation of the chemical reporter): +: strains showing highly distinctive fluorescence on their membrane, indicative of an effective metabolic incorporation of the chemical reporter; −: the absence of labeling
Neisseria gonorrhoeae = assay: as above; format: cell-based; parameters: key to labeling (fluorescence on membrane, metabolic incorporation of the chemical reporter): +: strains showing highly distinctive fluorescence on their membrane, indicative of an effective metabolic incorporation of the chemical reporter; −: the absence of labeling
[11] = compound 10 mM, 24 hours, fluorochrome-alkyne click 30 minutes

SMILES: [N-]=[N+]=NC[C@@H](O)[C@@H](O)[C@H](O)[C@H](O)CC(=O)C(=O)O [Kdo-N3, 8-azido-3,8-dideoxy-D-manno-octulosonate]
- labeling (fluorescence on membrane, metabolic incorporation of the chemical reporter) (Vibrio cholerae): +
- assimilation by the bacteria (in words) (Micrococcus luteus): did not assimilate
- labeling (fluorescence on membrane, metabolic incorporation of the chemical reporter) (Micrococcus luteus; [11]): −
- labeling (fluorescence on membrane, metabolic incorporation of the chemical reporter) [1]: −
- assimilation by the bacteria (in words) (Staphylococcus aureus): did not assimilate
- labeling (fluorescence on membrane, metabolic incorporation of the chemical reporter) (Staphylococcus aureus; [11]): −
- labeling (fluorescence on membrane, metabolic incorporation of the chemical reporter) [2]: +
- labeling (fluorescence on membrane, metabolic incorporation of the chemical reporter) (Klebsiella pneumoniae [3]): +
- labeling (fluorescence on membrane, metabolic incorporation of the chemical reporter) (Escherichia coli O86): +
- labeling (fluorescence on membrane, metabolic incorporation of the chemical reporter) [4]: +
- assimilation by the bacteria (in words) [5]: did not assimilate
- labeling (fluorescence on membrane, metabolic incorporation of the chemical reporter) [5, 11]: −
- labeling (fluorescence on membrane, metabolic incorporation of the chemical reporter) [6]: +
- labeling (fluorescence on membrane, metabolic incorporation of the chemical reporter) (Providenda stuartii): +
- assimilation by the bacteria (in words) (Listeria monocytogenes ½; Listeria monocytogenes (strain not given)): did not assimilate
- labeling (fluorescence on membrane, metabolic incorporation of the chemical reporter) (Listeria monocytogenes ½; Listeria monocytogenes ½, compound 10 mM, 24 hours, fluorochrome-alkyne click 30 minutes): −
- labeling (fluorescence on membrane, metabolic incorporation of the chemical reporter) (Klebsiella pneumoniae [7]): +
- labeling (fluorescence on membrane, metabolic incorporation of the chemical reporter) (Serratia marcescens [8]): +
- labeling (fluorescence on membrane, metabolic incorporation of the chemical reporter) (Proteus mirabilis): +
- labeling (fluorescence on membrane, metabolic incorporation of the chemical reporter) [9]: +
- assimilation by the bacteria (in words) (Staphylococcus epidermis): did not assimilate
- labeling (fluorescence on membrane, metabolic incorporation of the chemical reporter) (Staphylococcus epidermis; [11]): −
- labeling (fluorescence on membrane, metabolic incorporation of the chemical reporter) (Neisseria meningitidis): +
- labeling (fluorescence on membrane, metabolic incorporation of the chemical reporter) (Serratia marcescens [10]): +
- labeling (fluorescence on membrane, metabolic incorporation of the chemical reporter) (Escherichia coli K12): +
- assimilation by the bacteria (in words) (Enterococcus faecalis): did not assimilate
- labeling (fluorescence on membrane, metabolic incorporation of the chemical reporter) (Enterococcus faecalis; [11]): −
- assimilation by the bacteria (in words) (Neisseria gonorrhoeae): did not assimilate
- labeling (fluorescence on membrane, metabolic incorporation of the chemical reporter) (Neisseria gonorrhoeae; [11]): −

— patent US11199542B2, “Method for labeling specifically living bacteria comprising the use of modified non endogenous monosaccharide compounds” (priority 2015, dated 2021)
